Counter-ions that a name gives are not always drawn.
Experiments:
[1] = tested on: HiBiT-tagged HTT protein; assay: HiBiT protein abundance assay, HTT (K562 HiBiT knock-in cells); assay type: cell-based, human; details: 24 hours
Description: (§1) Compounds described herein were used to screen for effects on quantitative protein abundance using a HiBit assay system (Promega). Quantitative protein abundance was determined by measuring the protein levels of HiBit-tagged protein targets expressed in cell culture via luminescence using the Nano-Glo HiBiT Lytic Detection System, which uses a split complementation assay format to reconstitute NanoBiT enzyme to generate a luminescent signal. A protein abundance assay was developed such that endogenous protein targets could be modified with the HiBiT peptide tag and their abundance could be assessed after compound treatment. Briefly, K562 cell lines containing a HiBiT-modification were treated with various compounds described herein (e.g., compounds of Formulas (I), (II), or (III)). After treatment for 24 hours, the protein abundance of a specific target was determined by measuring luminescence.
(§2) • Promega Nano-Glo HiBiT Lytic Detection System (cat #N3030) • Corning 384-well TC-treated microplates (cat #3570) • Synthego Engineered Cells Knock-In Clones
(§3) Cells were maintained in IMDM with 10% FBS. Before the assay, cells were diluted with […] growth media (IMDM+1% FBS media) and were seeded in a 384-well plate at a density of 10000 cells/well (for each cell line listed in Table 6). Each compound was prepared as a 10-point 3-fold serial dilution in DMSO with the top dose at a final concentration of 10 μM in the well. Unmodified K562 cells were added at the previously specified density with DMSO to serve as an assay baseline and positive control (PC) and DMSO only with the respective modified cell lines was added to the negative control (NC) columns. Final DMSO concentration was kept at or below 0.25%. Treated cell plates were placed in an incubator at 37° C. with 5% CO2 for 24 hours. After 24 hours, 25 μL of Complete HiBit Lytic reagent was added to each well at room temperature (e.g. one plate requiring 10 mL Lytic Buffer, 100 μL LgBiT Protein, 200 μL Lytic Substrate), shaken for 5 minutes at 600 RPM, then left to sit for 10 minutes for signal to stabilize before reading on a Spark Cyto plate reader (Tecan) with a 500 ms measurement time.
(§4) To determine compound effects on protein abundance of each target in Table 6, the percent response for each respective cell line was calculated at each compound concentration as follows:
(§5) For the normalized response at each concentration, a four-parameter logistical regression was fit to the data and the response was interpolated at the 50% value to determine a concentration for protein abundance at 50% (IC50) the untreated control.

[2] = tested on: Target C; assay: HiBiT protein abundance assay, Target C (K562 HiBiT knock-in cells); assay type: cell-based, human; details: 24 hours
Description: as §2, §3, §4, §5

[3] = tested on: HiBiT-tagged MYB protein; assay: HiBiT protein abundance assay, MYB (K562 HiBiT knock-in cells); assay type: cell-based, human; details: 24 hours
Description: as §1, §2, §3, §4, §5

[4] = tested on: K562 cells; assay: Cell Titer Glo 2.0 cell viability assay in K562 cells; details: 72 hours
[5] = tested on: HTT mRNA; assay: Splicing RT-qPCR assay, HTT canonical (CJ) and alternative (AJ) junction mRNA; assay type: cell-based; details: Homo sapiens, A673 or K562 cells, 24 hours
In short: (§6)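 A673 (DMEM/10% FBS, plated 24 h before dosing) or K562 (IMDM/10% FBS) cells treated 24 h at 37 °C with 11-point 3-fold dilutions, top final 10 uM, DMSO ≤0.25%. Lysates analysed by one-step RT-qPCR for CJ and AJ isoforms, normalized to GAPDH/GUSB (K562) or PPIA (A673).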

[6] = tested on: MYB mRNA; assay: Splicing RT-qPCR assay, MYB canonical (CJ) and alternative (AJ) junction mRNA; assay type: cell-based; details: Homo sapiens, A673 or K562 cells, 24 hours
In short: as §6

[7] = decrease in canonical junction mRNA
[8] = increase in alternative junction mRNA

| Structure (SMILES) | IC50 [1] | IC50 [2] | IC50 [3] | IC50 [5, 7] | IC50 [6, 7] | Viability [4] | AC50 [5, 8] | AC50 [6, 8] |
| --- | --- | --- | --- | --- | --- | --- | --- | --- |
| Cc1cn2cc(NC(=O)c3ccc(N4CCNCC4)c4ccnnc34)cc(F)c2n1 [Compound 101] | 0.1 to 1 µM | 0.1 to 1 µM | < 0.1 µM |  |  | B (B represents 100-1000 nM) |  |  |
| Cc1cn2cc(NC(=O)c3ccc(N4CCC5(CCN5)CC4)c4ccnnc34)cc(F)c2n1 [Compound 171, 5-{1,7-diazaspiro[3.5]nonan-7-yl}-N-{8-fluoro-2-methylimidazo[1,2-a]pyridin-6-yl}cinnoline-8-carboxamide trifluoroacetate] | 0.1 to 1 µM | 1 to 10 µM | < 0.1 µM |  |  | B (B represents 100-1000 nM) |  |  |
| Cc1cn2cc(NC(=O)c3ccc(N4CCN[C@H](C)C4)c4nccnc34)cc(F)c2n1 [Compound 188, N-{8-fluoro-2-methylimidazo[1,2-a]pyridin-6-yl}-8-(3-methylpiperazin-1-yl)quinoxaline-5-carboxamide] | 1 to 10 µM | 1 to 10 µM | < 0.1 µM |  |  | B (B represents 100-1000 nM) |  |  |
| Cc1cn2cc(NC(=O)c3ccc(N4CCC(N(C)C)CC4)c4nccnc34)cc(F)c2n1 [Compound 158, 8-(4-(dimethylamino)piperidin-1-yl)-N-(8-fluoro-2-methylimidazo[1,2-a]pyridin-6-yl)quinoxaline-5-carboxamide] | 0.1 to 1 µM | 1 to 10 µM | 0.1 to 1 µM |  |  | B (B represents 100-1000 nM) |  |  |
| Cc1cn2cc(NC(=O)c3ccc(N4CCN[C@@H](CO)C4)c4nccnc34)cc(F)c2n1 [Compound 361] | 1 to 10 µM | 1 to 10 µM | 0.1 to 1 µM | 1 to 10 µM | 0.1 to 1 µM | B (B represents 100-1000 nM) | 1 to 10 µM | < 0.1 µM |
| Cc1nc2c(F)cc(NC(=O)c3ccc(N4CCNCC4)c4ccnnc34)cc2o1 [Compound 117] | 0.1 to 1 µM | 1 to 10 µM | < 0.1 µM |  |  | B (B represents 100-1000 nM) |  |  |

Further lines, with some results ahead:

| IC50 [1] | IC50 [2] | IC50 [3] | IC50 [5, 7] | IC50 [6, 7] | Structure (SMILES) | Viability [4] | AC50 [5, 8] | AC50 [6, 8] |
| --- | --- | --- | --- | --- | --- | --- | --- | --- |
| 0.1 to 1 µM | 1 to 10 µM | < 0.1 µM |  |  | CCNC1CCN(c2ccc(C(=O)Nc3cc(F)c4nc(C)cn4c3)c3nnccc23)CC1 [Compound 139, 5-[4-(ethylamino)piperidin-1-yl]-N-{8-fluoro-2-methylimidazo[1,2-a]pyridin-6-yl}cinnoline-8-carboxamide] | A (A represents <100 nM) |  |  |
| 1 to 10 µM | 1 to 10 µM | < 0.1 µM |  |  | Cc1cn2cc(NC(=O)c3ccc(N4CCNC(C)C4)c4nccnc34)cc(F)c2n1 (stereo not shown) [Compound 157] | A (A represents <100 nM) |  |  |
| 1 to 10 µM | 1 to 10 µM | < 0.1 µM |  |  | Cc1cn2cc(NC(=O)c3ccc(N4CCNCC4)c4ccnnc34)cc(Cl)c2n1 [Compound 124] | B (B represents 100-1000 nM) |  |  |
| > 10 µM | > 10 µM | < 0.1 µM |  |  | COc1cnc2c(C(=O)Nc3cc(F)c4nc(C)cn4c3)ccc(N3CCC(N(C)C)CC3)c2n1 [Compound 224, 8-[4-(dimethylamino)piperidin-1-yl]-N-{8-fluoro-2-methylimidazo[1,2-a]pyridin-6-yl}-2-methoxyquinoxaline-5-carboxamide] | B (B represents 100-1000 nM) |  |  |
| 0.1 to 1 µM | 1 to 10 µM | < 0.1 µM |  |  | Cc1cn2cc(NC(=O)c3ccc(C4CCNCC4)c4ccnnc34)cc(F)c2n1 [Compound 103] | A (A represents <100 nM) |  |  |
| 0.1 to 1 µM | 0.1 to 1 µM | 0.1 to 1 µM |  |  | Cc1cnc2c(C(=O)Nc3cc(F)c4nc(C)cn4c3)ccc(N3CCNCC3)c2n1 [Compound 198] | B (B represents 100-1000 nM) |  |  |

— patent publication US20240409536A1, “COMPOUNDS AND METHODS FOR MODULATING SPLICING” (REMIX THERAPEUTICS INC., priority 2021, published 2024)
